Structures are written as SMILES. Values after ≈ are worked out from the molar mass of the structure shown.

Holding throughout (format): functional
Common to all, as to conditions: 72 h

Test [1] deals with Acyrthosiphon pisum. The test is described as follows: Insecticidal activity against Acyrthosiphon pisum (pea aphid) assessed as mortality at 1 mg/ml after 3 days by no-choice assay.
The subject of test [2] is Acyrthosiphon pisum. The test is described as follows: Insecticidal activity against Acyrthosiphon pisum (pea aphid) assessed as mortality at 5 mg/ml after 3 days by no-choice assay.
The subject of test [3] is Acyrthosiphon pisum. The test is described as follows: Insecticidal activity against Acyrthosiphon pisum (pea aphid) after 3 days by no-choice assay.

As to `C[C@@H]1CC[C@@]2(OC1)O[C@H]1[C@@H](O)[C@H]3[C@@H]4CC[C@H]5C[C@@H](O[C@@H]6O[C@H](CO)[C@H](O[C@@H]7O[C@H](CO)C(O)[C@H](O[C@@H]8OC[C@@H](O)[C@H](O)[C@H]8O)[C@H]7O[C@@H]7O[C@H](CO)[C@H](O)[C@H](O[C@@H]8O[C@H](CO)[C@@H](O)[C@H](O)[C@H]8O)[C@H]7O)[C@H](O)[C@H]6O)[C@H](O)C[C@]5(C)[C@H]4CC[C@]3(C)[C@H]1[C@@H]2C` (some centres undefined) [DIGITONIN], in the test on Acyrthosiphon pisum [1], the mortality at 1000 µg/mL is 76%. Further, the mortality at 5000 µg/mL in the test with Acyrthosiphon pisum [2] was 14%. In the test with Acyrthosiphon pisum [3], this compound gave an LC50 of 0.45 µg/mL (≈ 0.366 µM).
For the compound `C[C@@H]1CC[C@@]2(OC1)O[C@H]1C[C@H]3[C@@H]4CC=C5C[C@@H](O)CC[C@]5(C)[C@H]4CC[C@]3(C)[C@H]1[C@@H]2C` [DISOGENIN], in the test with Acyrthosiphon pisum [2], the mortality at 5000 µg/mL was determined as 18%.

Source of the values: ChEMBL document CHEMBL3045341, “Triterpene saponins of Quillaja saponaria show strong aphicidal and deterrent activity against the pea aphid Acyrthosiphon pisum” (2012).
